Experimental data from patent US9206159B2, “Piperazine-piperidine compounds as hepatitis C virus inhibitors” (Theravance Biopharma R&D IP, LLC, priority 2012, dated 2015).

system: HCV genotype 1a replicon cell line; assay: HCV Genotype 1a Replicon Assay; assay type: cell-based, hepatitis C virus; details: Hepatitis C virus, Huh7.5 cell background, NS3-specific protease activity in lysates, 48 or 72 hours, read-out: Genotype 1a (pEC50 class) (converted)
Procedure: Assay 2: HCV Genotype 1a Replicon Assay
The HCV genotype 1a replicon cell line was obtained from Apath LLC (APC89; Huh7.5 cell background). This subgenomic replicon contains the N-terminus of the HCV core protein fused to the neomycin-resistance selectable marker. The EMCV IRES lies downstream and drives expression of the non-structural proteins NS3-NS5B. Compound potencies were determined using the NS3-specific protease activity in lysates as a measurement of compound inhibition of replicon levels.
Cells were grown at 37° C. in a 5% CO2 humidified incubator in DMEM (Invitrogen) with 10% FBS (HyClone), 1×NEAA (Invitrogen), 1× Pen-Strep (Invitrogen), and 850 μg/mL G418 (Invitrogen). On day 1 of the assay, cells were plated at 15,000 cells/well in black 96-well tissue culture plates (Costar) in 200 μL media lacking G418. Four hours later, once the cells had adhered, the media was removed and replaced with media (no G418) containing dose-responses of test compounds. Compounds were initially diluted in DMSO and then diluted another 200× in media to bring the final DMSO concentration down to 0.5%. The cells were incubated with test compounds for 48 or 72 hours. At the end of the incubation period, media and compound were removed from the plates.
To determine the NS3-specific protease activity in lysates, the cells were lysed at room temperature in 50 μL/well of 50 mM Hepes pH 7.5, 150 mM NaCl, 15% Glycerol, 0.15% Triton X-100, 10 mM DTT for 20 minutes with shaking. 50 μL of an NS3/4a protease-specific FRET substrate (Anaspec RET SI Cat#22991) was then added to the wells at a final concentration of 15 μM. The plates were incubated at 37° C. for 20 minutes, which corresponds to a timepoint at which the protease activity is still in the linear phase. Protease activity was determined by measuring fluorescence (Excitation: 340 nm; Emission: 509 nm).
To analyze the data, the fluorescence was plotted vs. the compound concentration, and EC50 values were determined from a 4-parameter robust fit model using GraphPad Prism software.

SMILES	EC50 [nM]
COC(=O)N[C@H](C(=O)N1CCC[C@H]1c1nc(-c2ccc(-c3ccc(NC(=O)N4CCN(C5CCN(C(=O)C6CC6)CC5)[C@@H](C)C4)cc3OC(F)(F)F)cc2)c[nH]1)C(C)C [Example 1, ((S)-1-{(S)-2-[4-(4′-{[(S)-4-(1-Cyclopropanecarbonyl-piperidin-4-yl)-3-methyl-piperazine-1-carbonyl]-amino}-2′-trifluoromethoxy-biphenyl-4-yl)-1H-imidazol-2-yl]-pyrrolidine-1-carbonyl}-2-methyl-propyl)-carbamic acid methyl ester]	0.1 to 1

same assay, conditions: Huh7.5 cell background, NS3-specific protease activity in lysates, 48 or 72 hours

SMILES	Genotype 1a (pEC50 class)
COC(=O)N[C@H](C(=O)N1CCC[C@H]1c1nc(-c2ccc(-c3ccc(NC(=O)N4CCN(C5CCN(C(=O)OCc6ccccc6)CC5)CC4)cc3)cc2)c[nH]1)C(C)C [Example 1-2]	B (B represents pEC50 between 8 and 9 (EC50 between 1 and 10 nM))
COC(=O)N[C@H](C(=O)N1CCC[C@H]1c1nc(-c2ccc(-c3ccc(NC(=O)N4CCN(C5CCN(C(=O)[C@H]6CC6(C)C)CC5)CC4)cc3)cc2)c[nH]1)C(C)C [Example 1-3]	C (C represents pEC50 between and 9 and about 10, (EC50 between 1 nM and 0.1 nM))
COC(=O)N[C@H](C(=O)N1CCC[C@H]1c1nc(-c2ccc(-c3ccc(NC(=O)N4CCN(C5CCN(C(=O)c6c[nH]cn6)CC5)CC4)cc3)cc2)c[nH]1)C(C)C [Example 1-5]	B (B represents pEC50 between 8 and 9 (EC50 between 1 and 10 nM))
COC(=O)N[C@H](C(=O)N1CCC(N2CCN(C(=O)Nc3ccc(-c4ccc(-c5c[nH]c([C@@H]6CCCN6C(=O)[C@@H](NC(=O)OC)C(C)C)n5)cc4)cc3)CC2)CC1)C(C)C [Example 1-6]	A (A represents a pEC50 value between 6 and 8 (EC50 between 1 μM and 10 nM))
CNC(=O)N1CCC(N2CCN(C(=O)Nc3ccc(-c4ccc(-c5c[nH]c([C@@H]6CCCN6C(=O)[C@@H](NC(=O)OC)C(C)C)n5)cc4)cc3)CC2)CC1 [Example 1-7]	B (B represents pEC50 between 8 and 9 (EC50 between 1 and 10 nM))
COC(=O)N[C@H](C(=O)N1CCC[C@H]1c1nc(-c2ccc(-c3ccc(NC(=O)N4CCN(C5CCN(C(=O)OC)CC5)CC4)cc3)cc2)c[nH]1)C(C)C [Example 1-9]	B (B represents pEC50 between 8 and 9 (EC50 between 1 and 10 nM))
COC(=O)N[C@H](C(=O)N1CCC[C@H]1c1nc(-c2ccc(-c3ccc(NC(=O)N4CCN(C5CCN(C(=O)C67CC8CC(CC(O)(C8)C6)C7)CC5)CC4)cc3OC(F)(F)F)cc2)c[nH]1)C(C)C [Example 1-10]	B (B represents pEC50 between 8 and 9 (EC50 between 1 and 10 nM))
COC(=O)N[C@H](C(=O)N1CCC[C@H]1c1nc(-c2ccc(-c3ccc(NC(=O)N4CCN(C5CCN(C(=O)C6CC7CCC6C7)CC5)CC4)cc3OC(F)(F)F)cc2)c[nH]1)C(C)C (stereo partly shown) [Example 1-11]	C (C represents pEC50 between and 9 and about 10, (EC50 between 1 nM and 0.1 nM))
COC(=O)N[C@H](C(=O)N1CCC[C@H]1c1nc(-c2ccc(-c3ccc(NC(=O)N4CCN(C5CCN(C(=O)C(C)NC(N)=O)CC5)CC4)cc3OC(F)(F)F)cc2)c[nH]1)C(C)C (stereo partly shown) [Example 1-15]	B (B represents pEC50 between 8 and 9 (EC50 between 1 and 10 nM))
COC(=O)N[C@H](C(=O)N1CCC[C@H]1c1nc(-c2ccc(-c3ccc(NC(=O)N4CCN(C5CCN(C(=O)C6CC6)CC5)C[C@H]4C)cc3OC(F)(F)F)cc2)c[nH]1)C(C)C [Example 1-18]	C (C represents pEC50 between and 9 and about 10, (EC50 between 1 nM and 0.1 nM))
COC(=O)N[C@H](C(=O)N1CCC[C@H]1c1nc(-c2ccc(-c3ccc(NC(=O)N4CCN(C5CCN(C(=O)OC(C)(C)C)CC5)C[C@H]4C)cc3OC(F)(F)F)cc2)c[nH]1)C(C)C [Example 1-19]	C (C represents pEC50 between and 9 and about 10, (EC50 between 1 nM and 0.1 nM))
COC(=O)N[C@H](C(=O)N1CCC[C@H]1c1nc(-c2ccc(-c3ccc(NC(=O)N4CCN(C5CCN(C(=O)c6ncccn6)CC5)CC4)cc3OC(F)(F)F)cc2)c[nH]1)C(C)C [Example 1-21]	B (B represents pEC50 between 8 and 9 (EC50 between 1 and 10 nM))
COC(=O)N[C@H](C(=O)N1CCC[C@H]1c1nc(-c2ccc(-c3ccc(NC(=O)N4CCN(C5CCN(C(=O)c6c[nH]cn6)CC5)CC4)cc3OC(F)(F)F)cc2)c[nH]1)C(C)C [Example 1-23]	C (C represents pEC50 between and 9 and about 10, (EC50 between 1 nM and 0.1 nM))
CNC(=O)N1CCC(N2CCN(C(=O)Nc3ccc(-c4ccc(-c5c[nH]c([C@@H]6CCCN6C(=O)[C@@H](NC(=O)OC)C(C)C)n5)cc4)c(OC(F)(F)F)c3)CC2)CC1 [Example 1-24]	C (C represents pEC50 between and 9 and about 10, (EC50 between 1 nM and 0.1 nM))
COC(=O)N[C@H](C(=O)N1CCC[C@H]1c1nc(-c2ccc(-c3cc(F)c(NC(=O)N4CCN(C5CCN(C(=O)[C@H]6CC6(C)C)CC5)CC4)cc3OC(F)(F)F)cc2)c[nH]1)C(C)C [Example 1-26]	C (C represents pEC50 between and 9 and about 10, (EC50 between 1 nM and 0.1 nM))
COC(=O)N[C@H](C(=O)N1CCC[C@H]1c1nc(-c2ccc(-c3cc(F)c(NC(=O)N4CCN(C5CCN(C(=O)C6CC6)CC5)CC4)cc3OC(F)(F)F)cc2)c[nH]1)C(C)C [Example 1-28]	C (C represents pEC50 between and 9 and about 10, (EC50 between 1 nM and 0.1 nM))
COC(=O)N[C@H](C(=O)N1CCC(N2CCN(C(=O)Nc3ccc(-c4ccc(-c5c[nH]c([C@@H]6CCCN6C(=O)[C@@H](NC(=O)OC)C(C)C)n5)cc4)c(OC(F)(F)F)c3)CC2)CC1)C(C)C [Example 1-29]	A (A represents a pEC50 value between 6 and 8 (EC50 between 1 μM and 10 nM))
CCN(CC)[C@@H](C(=O)N1CCC(N2CCN(C(=O)Nc3ccc(-c4ccc(-c5c[nH]c([C@@H]6CCCN6C(=O)[C@@H](NC(=O)OC)C(C)C)n5)cc4)c(OC(F)(F)F)c3)CC2)CC1)C(C)C [Example 1-30]	A (A represents a pEC50 value between 6 and 8 (EC50 between 1 μM and 10 nM))
CCN(CC)[C@@H](C(=O)N1CCC(N2CCN(C(=O)Nc3ccc(-c4ccc(-c5c[nH]c([C@@H]6CCCN6C(=O)[C@@H](NC(=O)OC)C(C)C)n5)cc4)c(OC(F)(F)F)c3)CC2)CC1)c1ccccc1 [Example 1-32]	A (A represents a pEC50 value between 6 and 8 (EC50 between 1 μM and 10 nM))
COC(=O)N[C@H](C(=O)N1CCC[C@H]1c1nc(-c2ccc(-c3cc(Cl)c(NC(=O)N4CCN(C5CCN(C(=O)C6CC6)CC5)CC4)cc3OC(F)(F)F)cc2)c[nH]1)C(C)C [Example 1-33]	C (C represents pEC50 between and 9 and about 10, (EC50 between 1 nM and 0.1 nM))
COC(=O)N[C@H](C(=O)N1CCC[C@H]1c1nc(-c2ccc(-c3cc(Cl)c(NC(=O)N4CCN(C5CCN(C(=O)[C@H]6CC6(C)C)CC5)CC4)cc3OC(F)(F)F)cc2)c[nH]1)C(C)C [Example 1-34]	C (C represents pEC50 between and 9 and about 10, (EC50 between 1 nM and 0.1 nM))
COC(=O)N[C@H](C(=O)N1CCC[C@H]1c1nc(-c2ccc(-c3cc(Cl)c(NC(=O)N4CCN(C5CCN(C(=O)OC(C)(C)C)CC5)CC4)cc3OC(F)(F)F)cc2)c[nH]1)C(C)C [Example 1-36]	C (C represents pEC50 between and 9 and about 10, (EC50 between 1 nM and 0.1 nM))
COC(=O)NC(C(=O)N1CCCC1c1nc(-c2ccc(-c3ccc(NC(=O)N4CCN(C5CCN(C(=O)C6CC6(C)C)CC5)C(C)C4)cc3OC(F)(F)F)cc2)c[nH]1)C(C)C (stereo not shown) [Example 1-37]	B (B represents pEC50 between 8 and 9 (EC50 between 1 and 10 nM))
COC(=O)NC(C(=O)N1CCCC1c1nc(-c2ccc(-c3ccc(NC(=O)N4CCN(C5CCN(C(=O)OC(C)(C)C)CC5)C(C)C4)cc3OC(F)(F)F)cc2)c[nH]1)C(C)C (stereo not shown) [Example 1-38]	B (B represents pEC50 between 8 and 9 (EC50 between 1 and 10 nM))
CNC(=O)N1CCC(N2CCN(C(=O)Nc3ccc(-c4ccc(-c5c[nH]c(C6CCCN6C(=O)C(NC(=O)OC)C(C)C)n5)cc4)c(OC(F)(F)F)c3)CC2C)CC1 (stereo not shown) [Example 1-39]	B (B represents pEC50 between 8 and 9 (EC50 between 1 and 10 nM))
COC(=O)NC(C(=O)N1CCCC1c1nc(-c2ccc(-c3ccc(NC(=O)N4CCN(C5CCN(C(=O)C6CC6)CC5)C(C)C4)cc3OC(F)(F)F)cc2)c[nH]1)C(C)C (stereo not shown) [Example 1-40]	B (B represents pEC50 between 8 and 9 (EC50 between 1 and 10 nM))
COC(=O)N[C@H](C(=O)N1CCC[C@H]1c1nc(-c2ccc(-c3ccc(NC(=O)N4CCN(C5CCN(C(=O)C6CC6)CC5)C[C@@H]4C)cc3OC(F)(F)F)cc2)c[nH]1)C(C)C [Example 1-41]	B (B represents pEC50 between 8 and 9 (EC50 between 1 and 10 nM))
